Measured values as given in ChEMBL document CHEMBL1201861, “Genomics of Drug Sensitity in Cancer screening data, Wellcome Trust Sanger Institute”.
Structures can show the parent of a compound that is named as a salt.

How the values were obtained:
Test in all cases: cells
Format in all cases: functional, cell-based, Homo sapiens
NCI-H1581 = tested on: NCI-H1581;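 note: cell growth inhibition read out by a viability assay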
Description: SANGER: Inhibition of human NCI-H1581 cell growth in a cell viability assay.

HDLM-2 = tested on: HDLM-2;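 note: cell viability assay measuring suppression of HDLM-2 proliferation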
Description: SANGER: Inhibition of human HDLM-2 cell growth in a cell viability assay.

RXF 393 = tested on: RXF 393;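 note: growth inhibition of human RXF 393 cells, read out with a cell viability assay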
Description: SANGER: Inhibition of human RXF393 cell growth in a cell viability assay.

LOX IMVI = tested on: LOX IMVI
Description: SANGER: Inhibition of human LOXIMVI cell growth in a cell viability assay.

HCC 2998 = tested on: HCC 2998;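 note: growth inhibition of human HCC2998 cells, measured with a cell viability read-out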
Description: SANGER: Inhibition of human HCC2998 cell growth in a cell viability assay.

MOLT-4 = tested on: MOLT-4;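 note: growth inhibition of MOLT-4 cells, determined with a cell viability readout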
Description: SANGER: Inhibition of human MOLT-4 cell growth in a cell viability assay.

DJM-1 = tested on: DJM-1;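 note: growth inhibition of human DJM-1 cells, read out by a cell viability assay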
Description: SANGER: Inhibition of human DJM-1 cell growth in a cell viability assay.

EW-1 = tested on: EW-1;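 note: growth inhibition of the human EW-1 cell line, read out by a cell viability assay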
Description: SANGER: Inhibition of human EW-1 cell growth in a cell viability assay.

SK-MEL-2 = tested on: SK-MEL-2;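 note: growth inhibition of human SK-MEL-2 cells measured with a cell viability assay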
Description: SANGER: Inhibition of human SK-MEL-2 cell growth in a cell viability assay.

OCUB-M = tested on: OCUB-M;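 note: growth inhibition of the cancer cell line, read out through a cell viability assay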
Description: SANGER: Inhibition of human OCUB-M cell growth in a cell viability assay.

PSN1 = tested on: PSN1;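 note: suppression of growth of human PSN1 cells, read out by a cell viability assay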
Description: SANGER: Inhibition of human PSN1 cell growth in a cell viability assay.

IST-MEL1 = tested on: IST-MEL1;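 note: growth inhibition of the cell line, read out with a cell viability assay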
Description: SANGER: Inhibition of human IST-MEL1 cell growth in a cell viability assay.

SW 954 = tested on: SW 954;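 note: growth inhibition of SW954 human cancer cells, read out as cell viability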
Description: SANGER: Inhibition of human SW954 cell growth in a cell viability assay.

KALS-1 = tested on: KALS-1;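 note: growth inhibition of KALS-1 cells, determined with a cell viability assay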
Description: SANGER: Inhibition of human KALS-1 cell growth in a cell viability assay.

OVCAR-4 = tested on: OVCAR-4;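 note: growth inhibition of human OVCAR-4 cells, measured with a cell viability assay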
Description: SANGER: Inhibition of human OVCAR-4 cell growth in a cell viability assay.

RPMI-8226 = tested on: RPMI-8226
Description: SANGER: Inhibition of human RPMI-8226 cell growth in a cell viability assay.

OCI-AML2 = tested on: OCI-AML2;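 note: growth inhibition of OCI-AML2 cells, read out with a cell viability assay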
Description: SANGER: Inhibition of human OCI-AML2 cell growth in a cell viability assay.

SCH = tested on: SCH;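 note: growth inhibition of human SCH cells, read out in a cell viability assay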
Description: SANGER: Inhibition of human SCH cell growth in a cell viability assay.

K562 = tested on: K562
Description: SANGER: Inhibition of human K-562 cell growth in a cell viability assay.

SW982 = tested on: SW982;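 note: growth inhibition of SW982 cells, read out with a cell viability assay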
Description: SANGER: Inhibition of human SW982 cell growth in a cell viability assay.

NCI-H1304 = tested on: NCI-H1304;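 note: growth inhibition of the cancer cell line, measured in a cell viability assay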
Description: SANGER: Inhibition of human NCI-H1304 cell growth in a cell viability assay.

CGTH-W-1 = tested on: CGTH-W-1;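 note: growth inhibition of human CGTH-W-1 cells measured by cell viability assay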
Description: SANGER: Inhibition of human CGTH-W-1 cell growth in a cell viability assay.

GB-1 = tested on: GB-1;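 note: growth of GB-1 cells judged by a viability assay, IC50 marks the concentration inhibiting growth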
Description: SANGER: Inhibition of human GB-1 cell growth in a cell viability assay.

SCC-15 = tested on: SCC-15;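 note: growth inhibition of SCC-15 cells, read out with a cell viability assay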
Description: SANGER: Inhibition of human SCC-15 cell growth in a cell viability assay.

NCI-H1770 = tested on: NCI-H1770;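 note: growth inhibition of NCI-H1770 cells determined with a viability readout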
Description: SANGER: Inhibition of human NCI-H1770 cell growth in a cell viability assay.

TE-6 = tested on: TE-6;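 note: growth inhibition of TE-6 cells, read out with a cell viability assay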
Description: SANGER: Inhibition of human TE-6 cell growth in a cell viability assay.

KINGS-1 = tested on: KINGS-1;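 note: cell viability assay measuring suppression of KINGS-1 cell growth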
Description: SANGER: Inhibition of human KINGS-1 cell growth in a cell viability assay.

UACC-257 = tested on: UACC-257
Description: SANGER: Inhibition of human UACC-257 cell growth in a cell viability assay.

RH-1 = tested on: RH-1;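 note: growth inhibition of human RH-1 cells, read out with a cell viability assay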
Description: SANGER: Inhibition of human RH-1 cell growth in a cell viability assay.

BV-173 = tested on: BV-173
Description: SANGER: Inhibition of human BV-173 cell growth in a cell viability assay.

NCI-H1299 = tested on: NCI-H1299;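 note: growth inhibition of human NCI-H1299 cells, read out by a cell viability assay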
Description: SANGER: Inhibition of human NCI-H1299 cell growth in a cell viability assay.

DMS-79 = tested on: DMS-79;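 note: growth inhibition measured with a cell viability assay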
Description: SANGER: Inhibition of human DMS-79 cell growth in a cell viability assay.

L-363 = tested on: L-363
Description: SANGER: Inhibition of human L-363 cell growth in a cell viability assay.

no-11 = tested on: no-11;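 note: growth inhibition of human NO-11 cells, read out with a cell viability assay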
Description: SANGER: Inhibition of human no-11 cell growth in a cell viability assay.

MS-1 = tested on: MS-1;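 note: growth inhibition of MS-1 cells, read out by cell viability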
Description: SANGER: Inhibition of human MS-1 cell growth in a cell viability assay.

NCI-H526 = tested on: NCI-H526;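 note: growth inhibition of the human NCI-H526 cell line, measured by a cell viability assay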
Description: SANGER: Inhibition of human NCI-H526 cell growth in a cell viability assay.

RPMI-8866 = tested on: RPMI-8866
Description: SANGER: Inhibition of human RPMI-8866 cell growth in a cell viability assay.

Ramos-2G6-4C10 = tested on: Ramos-2G6-4C10;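 note: growth inhibition of the cell line, measured by a cell viability read-out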
Description: SANGER: Inhibition of human Ramos-2G6-4C10 cell growth in a cell viability assay.

U-266 = tested on: U-266
Description: SANGER: Inhibition of human U-266 cell growth in a cell viability assay.

DU-4475 = tested on: DU-4475
Description: SANGER: Inhibition of human DU-4475 cell growth in a cell viability assay.

GAK = tested on: GAK;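 note: cell growth inhibition read out by a cell viability assay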
Description: SANGER: Inhibition of human GAK cell growth in a cell viability assay.

EW-18 = tested on: EW-18;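 note: growth inhibition of EW-18 cells, read out by a cell viability assay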
Description: SANGER: Inhibition of human EW-18 cell growth in a cell viability assay.

LS-123 = tested on: LS-123
Description: SANGER: Inhibition of human LS-123 cell growth in a cell viability assay.

TGBC24TKB = tested on: TGBC24TKB;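 note: growth inhibition of human TGBC24TKB cells, read out with a cell viability assay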
Description: SANGER: Inhibition of human TGBC24TKB cell growth in a cell viability assay.

SF-268 = tested on: SF-268;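 note: growth inhibition of SF-268 cells determined with a cell viability assay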
Description: SANGER: Inhibition of human SF268 cell growth in a cell viability assay.

Mo = tested on: Mo
Description: SANGER: Inhibition of human Mo-T cell growth in a cell viability assay.

NB10 = tested on: NB10;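 note: growth inhibition of NB10 cells, read out by a cell viability assay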
Description: SANGER: Inhibition of human NB10 cell growth in a cell viability assay.

## O=C(O)c1ccc(-c2c[nH]c3ncc(-c4ccccc4)cc23)cc1C1CCCC1 [GSK-650394]
NCI-H1581; Homo sapiens, NCI-H1581
  IC50: > 16 µM
HDLM-2; Homo sapiens, HDLM-2
  IC50: > 16 µM
RXF 393; Homo sapiens, RXF 393
  IC50: > 16 µM
LOX IMVI; Homo sapiens, LOX IMVI
  IC50: > 16 µM
HCC 2998; Homo sapiens, HCC 2998
  IC50: > 16 µM
MOLT-4; Homo sapiens, MOLT-4
  IC50: > 16 µM
DJM-1; Homo sapiens, DJM-1
  IC50: > 16 µM
EW-1; Homo sapiens, EW-1
  IC50: > 16 µM
SK-MEL-2; Homo sapiens, SK-MEL-2
  IC50: > 16 µM
OCUB-M; Homo sapiens, OCUB-M
  IC50: 2.79 µM
PSN1; Homo sapiens, PSN1
  IC50: 2.19 µM
IST-MEL1; Homo sapiens, IST-MEL1
  IC50: > 16 µM
SW 954; Homo sapiens, SW 954
  IC50: 4.46 µM
KALS-1; Homo sapiens, KALS-1
  IC50: > 16 µM
OVCAR-4; Homo sapiens, OVCAR-4
  IC50: > 16 µM
RPMI-8226; Homo sapiens, RPMI-8226
  IC50: > 16 µM
OCI-AML2; Homo sapiens, OCI-AML2
  IC50: > 16 µM
SCH; Homo sapiens, SCH
  IC50: > 16 µM
K562; Homo sapiens, K562
  IC50: > 16 µM
SW982; Homo sapiens, SW982
  IC50: 13.8 µM
NCI-H1304; Homo sapiens, NCI-H1304
  IC50: > 16 µM
CGTH-W-1; Homo sapiens, CGTH-W-1
  IC50: 2.1 µM
GB-1; Homo sapiens, GB-1
  IC50: 5.96 µM
SCC-15; Homo sapiens, SCC-15
  IC50: > 16 µM
NCI-H1770; Homo sapiens, NCI-H1770
  IC50: 10 µM
TE-6; Homo sapiens, TE-6
  IC50: > 16 µM
KINGS-1; Homo sapiens, KINGS-1
  IC50: > 16 µM
UACC-257; Homo sapiens, UACC-257
  IC50: > 16 µM
RH-1; Homo sapiens, RH-1
  IC50: 7.73 µM
BV-173; Homo sapiens, BV-173
  IC50: > 16 µM
NCI-H1299; Homo sapiens, NCI-H1299
  IC50: 5.99 µM
DMS-79; Homo sapiens, DMS-79
  IC50: > 16 µM
L-363; Homo sapiens, L-363
  IC50: > 16 µM
no-11; Homo sapiens
  IC50: > 16 µM
MS-1; Homo sapiens, MS-1
  IC50: > 16 µM
NCI-H526; Homo sapiens, NCI-H526
  IC50: 6.04 µM
RPMI-8866; Homo sapiens, RPMI-8866
  IC50: > 16 µM
Ramos-2G6-4C10; Homo sapiens, Ramos-2G6-4C10
  IC50: > 16 µM
U-266; Homo sapiens, U-266
  IC50: > 16 µM
DU-4475; Homo sapiens, DU-4475
  IC50: > 16 µM
GAK; Homo sapiens, GAK
  IC50: > 16 µM
EW-18; Homo sapiens, EW-18
  IC50: > 16 µM
LS-123; Homo sapiens, LS-123
  IC50: > 16 µM
TGBC24TKB; Homo sapiens, TGBC24TKB
  IC50: > 16 µM
SF-268; Homo sapiens, SF-268
  IC50: > 16 µM
Mo; Homo sapiens, Mo
  IC50: > 16 µM
NB10; Homo sapiens, NB10
  IC50: > 16 µM

## COC1=CC(c2cc3ccccc3[nH]2)=N/C1=C\c1[nH]c(C)cc1C [OBATOCLAX MESYLATE]
NCI-H1581; Homo sapiens, NCI-H1581
  IC50: 2.32 µM
HDLM-2; Homo sapiens, HDLM-2
  IC50: 0.42 µM
RXF 393; Homo sapiens, RXF 393
  IC50: 1.77 µM
LOX IMVI; Homo sapiens, LOX IMVI
  IC50: 0.0619 µM
HCC 2998; Homo sapiens, HCC 2998
  IC50: < 0.0625 µM
MOLT-4; Homo sapiens, MOLT-4
  IC50: 0.477 µM
DJM-1; Homo sapiens, DJM-1
  IC50: 0.175 µM
EW-1; Homo sapiens, EW-1
  IC50: < 0.0625 µM
SK-MEL-2; Homo sapiens, SK-MEL-2
  IC50: 0.157 µM
OCUB-M; Homo sapiens, OCUB-M
  IC50: 0.225 µM
PSN1; Homo sapiens, PSN1
  IC50: < 0.0625 µM
IST-MEL1; Homo sapiens, IST-MEL1
  IC50: < 0.0625 µM
SW 954; Homo sapiens, SW 954
  IC50: 0.403 µM
KALS-1; Homo sapiens, KALS-1
  IC50: 0.6 µM
OVCAR-4; Homo sapiens, OVCAR-4
  IC50: 0.206 µM
RPMI-8226; Homo sapiens, RPMI-8226
  IC50: 0.316 µM
OCI-AML2; Homo sapiens, OCI-AML2
  IC50: 0.0578 µM
SCH; Homo sapiens, SCH
  IC50: > 16 µM
K562; Homo sapiens, K562
  IC50: 1.67 µM
SW982; Homo sapiens, SW982
  IC50: 0.445 µM
NCI-H1304; Homo sapiens, NCI-H1304
  IC50: 1.64 µM
CGTH-W-1; Homo sapiens, CGTH-W-1
  IC50: 0.399 µM
GB-1; Homo sapiens, GB-1
  IC50: 0.164 µM
SCC-15; Homo sapiens, SCC-15
  IC50: 0.049 µM
NCI-H1770; Homo sapiens, NCI-H1770
  IC50: 0.047 µM
TE-6; Homo sapiens, TE-6
  IC50: 1.04 µM
KINGS-1; Homo sapiens, KINGS-1
  IC50: 0.826 µM
UACC-257; Homo sapiens, UACC-257
  IC50: 0.595 µM
RH-1; Homo sapiens, RH-1
  IC50: 0.222 µM
BV-173; Homo sapiens, BV-173
  IC50: 1.83 µM
NCI-H1299; Homo sapiens, NCI-H1299
  IC50: 0.0613 µM
DMS-79; Homo sapiens, DMS-79
  IC50: > 16 µM
L-363; Homo sapiens, L-363
  IC50: 0.0468 µM
no-11; Homo sapiens
  IC50: 1.51 µM
MS-1; Homo sapiens, MS-1
  IC50: 1.29 µM
NCI-H526; Homo sapiens, NCI-H526
  IC50: 2.63 µM
RPMI-8866; Homo sapiens, RPMI-8866
  IC50: 0.133 µM
Ramos-2G6-4C10; Homo sapiens, Ramos-2G6-4C10
  IC50: 0.129 µM
U-266; Homo sapiens, U-266
  IC50: 0.311 µM
DU-4475; Homo sapiens, DU-4475
  IC50: 0.162 µM
GAK; Homo sapiens, GAK
  IC50: < 0.0625 µM
EW-18; Homo sapiens, EW-18
  IC50: 0.13 µM
LS-123; Homo sapiens, LS-123
  IC50: 0.0872 µM
TGBC24TKB; Homo sapiens, TGBC24TKB
  IC50: 3.68 µM
SF-268; Homo sapiens, SF-268
  IC50: 0.0576 µM
Mo; Homo sapiens, Mo
  IC50: 1.9 µM
NB10; Homo sapiens, NB10
  IC50: 2.82 µM

## BLEOMYCIN
NCI-H1581; nci-h1581
  IC50: 110 µM
HDLM-2; hdlm-2
  IC50: 14.3 µM
RXF 393; rxf 393
  IC50: 176 µM
LOX IMVI; lox imvi
  IC50: 0.452 µM
HCC 2998; hcc 2998
  IC50: 0.00659 µM
MOLT-4; molt-4
  IC50: 1.77 µM
DJM-1; djm-1
  IC50: 1.13 µM
EW-1; ew-1
  IC50: 1.82 µM
SK-MEL-2; sk-mel-2
  IC50: 8.49 µM
OCUB-M; ocub-m
  IC50: 1.81 µM
PSN1; psn1
  IC50: 0.139 µM
IST-MEL1; ist-mel1
  IC50: 0.28 µM
SW 954; sw 954
  IC50: 0.00957 µM
KALS-1; kals-1
  IC50: 11.7 µM
OVCAR-4; ovcar-4
  IC50: 4.41 µM
RPMI-8226; rpmi-8226
  IC50: 906 µM
OCI-AML2; oci-aml2
  IC50: 2.26 µM
SCH; sch
  IC50: 444 µM
K562; k562
  IC50: 126 µM
SW982; sw982
  IC50: 0.417 µM
NCI-H1304; nci-h1304
  IC50: 4.1 µM
CGTH-W-1; cgth-w-1
  IC50: 4.3 µM
GB-1; gb-1
  IC50: 0.39 µM
SCC-15; scc-15
  IC50: 27.6 µM
NCI-H1770; nci-h1770
  IC50: 5.29 µM
TE-6; te-6
  IC50: 12.4 µM
KINGS-1; kings-1
  IC50: 1270 µM
UACC-257; uacc-257
  IC50: 234 µM
RH-1; rh-1
  IC50: 0.152 µM
BV-173; bv-173
  IC50: 0.855 µM
NCI-H1299; nci-h1299
  IC50: 0.108 µM
DMS-79; dms-79
  IC50: 325 µM
L-363; l-363
  IC50: 187 µM
no-11
  IC50: 85.6 µM
MS-1; ms-1
  IC50: 156 µM
NCI-H526; nci-h526
  IC50: 1.28 µM
RPMI-8866; rpmi-8866
  IC50: 7.91 µM
Ramos-2G6-4C10; ramos-2g6-4c10
  IC50: 9.88 µM
U-266; u-266
  IC50: 282 µM
DU-4475; du-4475
  IC50: 1.27 µM
GAK; gak
  IC50: 126 µM
EW-18; ew-18
  IC50: 75.8 µM
LS-123; ls-123
  IC50: 23.4 µM
TGBC24TKB; tgbc24tkb
  IC50: 204 µM
SF-268; sf-268
  IC50: 1.32 µM
Mo; mo
  IC50: 103 µM
NB10; nb10
  IC50: 13.8 µM
